Literature values as cited in patent US20020010148A1, “Oral combinations of hydroxocobalamin and folic acid” (priority 1999, published 2002).

Key:
homocysteine levels = conditions: 0.4 mg hydroxocobalamin alone or with 0.5 mg/day or 5 mg/day folic acid, oral
[1] = oral doses of 1 mg or more; without intrinsic factor; dose-dependent
vitamin B12 deficiency = conditions: oral 1-2 mg/day; patients with pernicious anaemia

| Molecule | contribution to lowering of homocysteine levels (homocysteine levels) | other results |
| --- | --- | --- |
| Nc1nc2ncc(CNc3ccc(C(=O)N[C@@H](CCC(=O)O)C(=O)O)cc3)nc2c(=O)[nH]1 [folic acid] | main effect |  |
| C/C1=C2/[N-][C@H]([C@H](CC(N)=O)[C@@]2(C)CCC(=O)NC[C@@H](C)OP(=O)([O-])O[C@H]2[C@@H](O)[C@@H](n3cnc4cc(C)c(C)cc43)O[C@@H]2CO)[C@]2(C)N=C(/C(C)=C3N=C(/C=C4N=C1[C@@H](CCC(N)=O)C\4(C)C)[C@@H](CCC(N)=O)[C@]\3(C)CC(N)=O)[C@@H](CCC(N)=O)[C@]2(C)CC(N)=O.[Co+3].[OH-] [hydroxocobalamin] | contributed little |  |
| Vitamin B12 |  | passive absorption, share of the oral dose [1]: 1-2% |
| cyanocobalamin |  | adequacy of oral dosing to provide vitamin B12 (vitamin B12 deficiency): fully adequate |
